Experimental data: patent US20190161807A1, “RAD51C as a Human Cancer Susceptibility Gene” (Heinrich-Heine-Universität Düsseldorf, priority 2010, published 2019)

Test system: RAD51C bi-allelic mutated cells
Assay: Toxicity of PARP inhibitor / topoisomerase I inhibitor exposure in cells with reduced or absent RAD51C function (FIG. 5, FIG. 6)
Assay type: cell-based
Details: RAD51C bi-allelic mutated cells vs normal cells, mono-allelic RAD51C mutated cells and RAD51C-complemented cells

| Compound | sensitivity (toxicity) of cells towards exposure to the PARP inhibitor (FIG. 5, means±SD, n=3) | sensitivity (toxicity) of cells towards exposure to the topoisomerase I inhibitor (FIG. 6, means±SD, n=4) |
| --- | --- | --- |
| CN(C)CC(=O)Nc1ccc2[nH]c(=O)c3ccccc3c2c1 [PJ34] | increased toxicities | – |
| CC[C@@]1(O)C(=O)OCc2c1cc1n(c2=O)Cc2cc3ccccc3nc2-1 [camptothecin] | – | increased toxicities |
